Measurements taken from paper PMC10794982, “β-Caryophyllene Inhibits Monoacylglycerol Lipase Activity and Increases 2-Arachidonoyl Glycerol Levels In Vivo: A New Mechanism of Endocannabinoid-Mediated Analgesia?” (Molecular Pharmacology, 2024).

Legend:
[1] = target: T1, monoacylglycerol lipase (MAGL) (Homo sapiens, UniProt Q99685); experiment: hydrolysis by kit MAGL, arachidonic acid product by HPLC-MS/MS; type: biochemical
T1 construct: gene MGLL
T1 sequence (Q99685 1-303): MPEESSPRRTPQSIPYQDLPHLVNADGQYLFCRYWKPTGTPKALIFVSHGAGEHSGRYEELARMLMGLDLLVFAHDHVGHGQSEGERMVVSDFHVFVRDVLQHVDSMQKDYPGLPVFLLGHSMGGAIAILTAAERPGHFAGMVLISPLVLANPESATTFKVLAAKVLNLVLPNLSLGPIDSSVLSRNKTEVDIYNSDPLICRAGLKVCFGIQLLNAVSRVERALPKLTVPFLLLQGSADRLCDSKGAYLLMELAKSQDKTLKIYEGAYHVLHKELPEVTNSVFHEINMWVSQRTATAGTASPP
Protocol: hydrolysis by kit MAGL, arachidonic acid product by HPLC-MS/MS on monoacylglycerol lipase (MAGL) | natural substrate 2-AG, which is hydrolyzed by MAGL to glycerol and AA. AA concentrations were determined using HPLC-MS/MS

[2] = target: T1, monoacylglycerol lipase (MAGL); experiment: modified Cayman MAGL inhibitor kit, 2-AG hydrolysis to arachidonic acid by HPLC-MS/MS; type: biochemical

CCCCC/C=C\C/C=C\C/C=C\C/C=C\CCCC(=O)OC(CO)CO [2-AG, 2-arachidonoylglycerol]
hydrolysis by kit MAGL, arachidonic acid product by HPLC-MS/MS [1]: natural substrate 2-AG, which is hydrolyzed by MAGL to glycerol and AA. AA concentrations were determined using HPLC-MS/MS

C=C1CC/C=C(\C)CC[C@@H]2[C@@H]1CC2(C)C [BCP, β-Caryophyllene]
IC50 [2]: 15.8 µM
